Like-named read-outs stand apart in the source and are kept apart here.
Key:
[1] = target: T1, human Cot catalytic domain (30-397 amino acids) (Homo sapiens, UniProt P41279); assay: High Throughput Cot Biochemical Assay (KinEASE TR-FRET); settings: read-out: IC50 HTRF
T1 construct: Purified recombinant human Cot catalytic domain (30-397 amino acids) was purchased from Cama Biosciences; purchased Cama Biosciences (so in the source)
Procedure, shortened: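 Reaction of 5 nM recombinant human Cot catalytic domain (aa 30-397) with 1 μM STK3 peptide (XL665-labeled) and 400 μM ATP in 10 mM MOPS pH 7.0, 10 mM MgOAc, 1 mM DTT, 0.5 mg/mL BSA, 0.1% DMSO. Phosphopeptide detected by TR-FRET with europium anti-phospho antibody.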

[2] = test system: TNFα production in LPS-stimulated human monocytes; assay: Cot Monocyte TNFα Cell Based Assay; settings: Homo sapiens, Monocyte, read-out: EC50 TNF
Procedure, shortened: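 Cells at 5,000/well were pretreated with compound for 1 h at 37 °C (0.5% DMSO final), then stimulated with 50 pg/ml LPS for 4 h at 37 °C. Supernatant TNFα was measured by two-antibody TR-FRET after overnight room-temperature incubation; values are percent of control between unstimulated and stimulated wells.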

[3] = Cot biochemical HTRF (KinEASE TR-FRET) assay
[4] = TNFα in LPS-stimulated human monocytes
[5] = Cot KinEASE TR-FRET (HTRF) biochemical assay, 400 μM ATP
[6] = Cot KinEASE TR-FRET, 400 μM ATP
[7] = LPS-stimulated human monocytes, TNFα TR-FRET

T1 sequence (P41279 30-397): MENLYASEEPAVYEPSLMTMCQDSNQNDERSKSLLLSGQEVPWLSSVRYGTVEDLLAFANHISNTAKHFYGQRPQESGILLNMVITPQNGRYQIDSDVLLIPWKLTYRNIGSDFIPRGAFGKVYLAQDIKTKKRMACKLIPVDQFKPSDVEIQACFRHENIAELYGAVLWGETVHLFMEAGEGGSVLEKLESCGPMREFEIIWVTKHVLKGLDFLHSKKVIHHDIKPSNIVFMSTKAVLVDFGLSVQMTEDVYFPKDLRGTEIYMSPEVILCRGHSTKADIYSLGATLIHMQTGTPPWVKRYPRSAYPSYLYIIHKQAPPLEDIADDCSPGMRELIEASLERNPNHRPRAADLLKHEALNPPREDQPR

Row | Structure (SMILES) | IC50 [1, 3] | EC50 [2, 4] | IC50 [1, 5] | IC50 [1, 6] | EC50 [2, 7]
1 | CC[C@@H](Nc1c(C#N)cnc2c(Cl)cc(N(CC)[C@@H](c3ccccc3)c3c[nH]nn3)cc12)c1ccccc1 [Example 481, 8-chloro-6-(ethyl((S)-phenyl(1H-1,2,3-triazol-4-yl)methyl)amino)-4-(((R)-1-phenylpropyl)amino) quinoline-3-carbonitrile] | 0.298 µM | 8.8 µM |  |  | 
2 | Cn1ccnc1-c1cccc([C@H](Nc2cc(Cl)c3ncc(C#N)c(Nc4ccc(F)c(Cl)c4)c3c2)c2cn(C3CCN(C(C)(C)C)CC3)nn2)c1 [Example 630, (S)-6-(((1-(1-(tert-butyl)piperidin-4-yl)-1H-1,2,3-triazol-4-yl)(3-(1-methyl-1H-imidazol-2-yl)phenyl)methyl)amino)-8-chloro-4-((3-chloro-4-fluorophenyl)amino)quinoline-3-carbonitrile] | 0.003 µM | 1.63 µM |  |  | 
3 | [2H][C@@](Nc1cc(C(C)=O)c2ncc(C#N)c(Nc3cccc(Cl)c3)c2c1)(c1cn(C2CC2)nn1)c1ccccc1Cl [Example 85, (S)-8-acetyl-6-(((2-chlorophenyl)(1-cyclopropyl-1H-1,2,3-triazol-4-yl)methyl-d)amino)-4-((3-chlorophenyl)amino)quinoline-3-carbonitrile] |  | 0.862 µM | 0.042 µM |  | 
4 | CC(C)(C)CNc1c(C#N)cnc2c(Cl)cc(N[C@@H](c3ccc(F)cc3)c3c[nH]nn3)cc12 [Example 400, (S)-8-chloro-6-(((4-fluorophenyl)(1H-1,2,3-triazol-4-yl)methyl)amino)-4-(neopentylamino) quinoline-3-carbonitrile] |  | 1.23 µM | 0.047 µM |  | 
5 | CC(C)n1cc([C@@H](Nc2cc(Cl)c3ncc(C#N)c(Nc4ccc(F)c(Cl)c4)c3c2)c2cccc(N3CCCC3=O)c2)nn1 [Example 549, (S)-8-chloro-4-((3-chloro-4-fluorophenyl)amino)-6-(((1-isopropyl-1H-1,2,3-triazol-4-yl) (3-(2-oxopyrrolidin-1-yl)phenyl)methyl)amino) quinoline-3-carbonitrile] | 0.003 µM | 0.65 µM |  |  | 
6 | CC(C)n1cc([C@@H](Nc2cc(Cl)c3ncc(C#N)c(Nc4cccc(Cl)c4F)c3c2)c2cccc(C(=O)N(C)C)c2)nn1 [Example 607, (S)-3-(((8-chloro-4-((3-chloro-2-fluorophenyl)amino)-3-cyanoquinolin-6-yl)amino)(1-isopropyl-1H-1,2,3-triazol-4-yl)methyl)-N,N-dimethylbenzamide] | 0.002 µM | 0.198 µM |  |  | 
7 | [2H]C(Nc1cc(Cl)c2ncc(C#N)c(NCC(C)(C)C)c2c1)(c1cn(CC(N)=O)nn1)c1ccccc1Cl (stereo not shown) [Compound 4] |  | 0.28 µM | 0.006 µM |  | 
8 | [2H]C(Nc1cc(Cl)c2ncc(C#N)c(NC3[C@H]4CCC[C@@H]34)c2c1)(c1ccc(F)cc1)c1cn(C2CC2)nn1 (stereo in doubt) [Example 117, 4-(((1R,5S)-bicyclo[3.1.0]hexan-6-yl)amino)-8-chloro-6-(((S)-(1-cyclopropyl-1H-1,2,3-triazol-4-yl) (4-fluorophenyl)methyl-d)amino)quinoline-3-carbonitrile] |  | 0.377 µM | 0.016 µM |  | 
9 | [2H][C@](Nc1cc(Cl)c2ncc(C#N)c(NCC3(C(F)F)CCC3)c2c1)(c1ccc(F)cc1)c1cn(C2CC2)nn1 [Example 198] |  | 0.229 µM | 0.012 µM |  | 
10 | C[C@@H](Nc1c(C#N)cnc2c(Cl)cc(N[C@@H](c3ccc(Cl)cc3)c3c[nH]nn3)cc12)c1ccccc1 [Example 657, 8-chloro-6-(((S)-(4-chlorophenyl)(1H-1,2,3-triazol-4-yl)methyl)amino)-4-(((R)-1-phenylethyl)amino)quinoline-3-carbonitrile] | 0.143 µM | 2.49 µM |  |  | 
11 | [2H][C@](Nc1cc(Cl)c2ncc(C#N)c(NC3(C)CC(F)(F)C3)c2c1)(c1ccc(F)cc1)c1cn(C2CC2)nn1 [Example 212, (S)-8-chloro-6-(((1-cyclopropyl-1H-1,2,3-triazol-4-yl)(4-fluorophenyl)methyl-d)amino)-4-((3,3-difluoro-1-methylcyclobutyl)amino) quinoline-3-carbonitrile] |  | 2.18 µM | 0.169 µM |  | 

Next, values leading:

Row | IC50 [1, 3] | EC50 [2, 4] | IC50 [1, 5] | IC50 [1, 6] | EC50 [2, 7] | Structure (SMILES)
12 |  |  |  | 0.007 µM | 0.023 µM | Cc1c(C#N)cccc1[C@H](Nc1cc(Cl)c2ncc(C#N)c(NCC(C)(C)C(F)(F)F)c2c1)c1cn(C2(C(F)F)CC2)nn1 [Example 1089, (S)-8-chloro-6-(((3-cyano-2-methylphenyl)(1-(1-(difluoromethyl)cyclopropyl)-1H-1,2,3-triazol-4-yl)methyl)amino)-4-((3,3,3-trifluoro-2,2-dimethylpropyl)amino)quinoline-3-carbonitrile]
13 |  |  |  | 0.006 µM | 0.176 µM | CC(C)(C)CNc1c(C#N)cnc2c(Cl)cc(N[C@H](c3cn(C4(C(F)(F)F)CC4)nn3)c3cccc(C(N)=O)c3F)cc12 [Example 1115, (S)-3-(((8-chloro-3-cyano-4-(neopentylamino)quinolin-6-yl)amino)(1-(1-(trifluoromethyl)cyclopropyl)-1H-1,2,3-triazol-4-yl)methyl)-2-fluorobenzamide]
14 |  |  |  | 0.003 µM | 0.219 µM | Cc1c([C@H](Nc2cc(C#N)c3ncc(C#N)c(NCC(C)(C)C)c3c2)c2cn(C3(C(F)(F)F)CC3)nn2)cccc1-n1cnnn1 [Example 1081, (S)-6-(((2-methyl-3-(1H-tetrazol-1-yl)phenyl)(1-(1-(trifluoromethyl)cyclopropyl)-1H-1,2,3-triazol-4-yl)methyl)amino)-4-(neopentylamino)quinoline-3,8-dicarbonitrile]
15 | 0.019 µM | 0.434 µM |  |  |  | CC(C)(C)N1CCC(n2cc([C@@H](Nc3cc(Cl)c4ncc(C#N)c(Nc5ccc(F)c(Cl)c5F)c4c3)c3ccc(Cl)cc3)nn2)CC1 [Example 695, (S)-6-(((1-(1-(tert-butyl)piperidin-4-yl)-1H-1,2,3-triazol-4-yl)(4-chlorophenyl)methyl)amino)-8-chloro-4-((3-chloro-2,4-difluorophenyl)amino)quinoline-3-carbonitrile]
16 |  |  |  | 0.032 µM | 0.069 µM | CC(C)(C)CNc1c(C#N)cnc2c(C#N)cc(N[C@@H](c3ccc(F)cc3)c3cn(C4(c5cccnn5)CC4)nn3)cc12 [Example 987, (S)-6-(((4-fluorophenyl)(1-(1-(pyridazin-3-yl)cyclopropyl)-1H-1,2,3-triazol-4-yl)methyl)amino)-4-(neopentylamino)quinoline-3,8-dicarbonitrile]
17 | 0.048 µM | 1.27 µM |  |  |  | CC(C)(C)N1CCC(n2cc([C@@H](Nc3cc(Cl)c4ncc(C#N)c(Nc5cccc(F)c5)c4c3)c3ccc(Cl)cc3)nn2)CC1 [Example 767, (S)-6-(((1-(1-(tert-butyl)piperidin-4-yl)-1H-1,2,3-triazol-4-yl)(4-chlorophenyl)methyl)amino)-8-chloro-4-((3-fluorophenyl)amino)quinoline-3-carbonitrile]
18 |  |  |  | 0.023 µM | 0.54 µM | [2H][C@](Nc1cc(Cl)c2ncc(C#N)c(NCC(C)(C)C)c2c1)(c1ccc(Cl)cc1)c1cn(C2CCN(C3CC3)CC2)nn1 [Example 982, (S)-8-chloro-6-(((4-chlorophenyl)(1-(1-cyclopropylpiperidin-4-yl)-1H-1,2,3-triazol-4-yl)methyl-d)amino)-4-(neopentylarnino) quinoline-3-carbonitrile]
19 | 0.07 µM | 0.615 µM |  |  |  | CCN1CC(n2cc([C@@H](Nc3cc(Cl)c4ncc(C#N)c(Nc5ccc(F)c(Cl)c5)c4c3)c3ccccc3)nn2)CC(F)(F)C1 (stereo partly drawn) [Example 745, 8-chloro-4-((3-chloro-4-fluorophenyl)amino)-6-(((1S)-(1-(1-ethyl-5,5-difluoropiperidin-3-yl)-1H-1,2,3-triazol-4-yl)(phenyl)methyl)amino) quinoline-3-carbonitrile]
20 | 0.297 µM | 1.15 µM |  |  |  | N#Cc1cnc2c(Cl)cc(N[C@@H](c3ccc(F)cc3)c3cn(C4CCN(CC(F)(F)F)CC4)nn3)cc2c1Nc1ccc(F)c(Cl)c1 [Example 828, (S)-8-chloro-4-((3-chloro-4-fluorophenyl)amino)-6-(((4-fluorophenyl)(1-(1-(2,2,2-trifluoroethyl)piperidin-4-yl)-1H-1,2,3-triazol-4-yl)methyl)amino)quinoline-3-carbonitrile]
21 |  |  |  | 0.034 µM | 0.576 µM | N#Cc1cnc2c(Cl)cc(N[C@@H](c3ccc(F)cc3)c3cn(C4CC4)nn3)cc2c1NCC12CC(C1)C2 [Example 927, (S)-4-((bicyclo[1.1.1]pentan-1-ylmethyl)amino)-8-chloro-6-(((1-cyclopropyl-1H-1,2,3-triazol-4-fluorophenyl)methyl)amino) quinoline-3-carbonitrile]
22 |  |  |  | 0.014 µM | 0.045 µM | Cc1nnc(C2(n3cc([C@@H](Nc4cc(C#N)c5ncc(C#N)c(NCC(C)(C)C)c5c4)c4ccccc4Cl)nn3)CC2)o1 [Example 1161, (S)-6-(((2-chlorophenyl)(1-(1-(5-methyl-1,3,4-oxadiazol-2-yl)cyclopropyl)-1H-1,2,3-triazol-4-yl)methyl)amino)-4-(neopentylamino)quinoline-3,8-dicarbonitrile]
23 |  |  |  | 0.013 µM | 0.221 µM | Cc1c(F)cccc1[C@H](Nc1cc(C#N)c2ncc(C#N)c(NCC(C)(C)C)c2c1)c1cn(C2(C(F)(F)F)CC2)nn1 [Example 1127, (S)-6-(((3-fluoro-2-methylphenyl)(1-(1-(trifluoromethyl)cyclopropyl)-1H-1,2,3-triazol-4-yl)methyl)amino)-4-(neopentylamino)quinoline-3,8-dicarbonitrile]

— patent US10316017B2, “COT modulators and methods of use thereof” (Gilead Sciences, Inc., priority 2015, dated 2019)
